One series has as its system P-gp (human MDR1). Put plainly: Efflux ratio of permeability from basolateral to apical side over apical to basolateral side in MDCK-MDR1 cells harboring human P-gp at 5 uM. It counts as ADME, cell-based, Canis lupus familiaris. Particulars: dog.
Series [1] can be described thus: Clearance in rat at 0.5 mg/kg, iv. It is filed as ADME, organism-based. The conditions noted are these: in vivo.
In series [2] the target is T1, Leucine-rich repeat serine/threonine-protein kinase 2 (Homo sapiens, UniProt Q5S007, G2019S). Put plainly: Inhibition of recombinant human GST-tagged LRRK2 G2019S mutant catalytic domain (970 to 2527 residues) expressed in insect cells using RtGWWRFYTLRRARQGNTKQR as substrate measured after 180 mins in presence of [gamma33P]ATP by topcount method.
T1 sequence (Q5S007 whole entry G2019S, the tested form may be a part): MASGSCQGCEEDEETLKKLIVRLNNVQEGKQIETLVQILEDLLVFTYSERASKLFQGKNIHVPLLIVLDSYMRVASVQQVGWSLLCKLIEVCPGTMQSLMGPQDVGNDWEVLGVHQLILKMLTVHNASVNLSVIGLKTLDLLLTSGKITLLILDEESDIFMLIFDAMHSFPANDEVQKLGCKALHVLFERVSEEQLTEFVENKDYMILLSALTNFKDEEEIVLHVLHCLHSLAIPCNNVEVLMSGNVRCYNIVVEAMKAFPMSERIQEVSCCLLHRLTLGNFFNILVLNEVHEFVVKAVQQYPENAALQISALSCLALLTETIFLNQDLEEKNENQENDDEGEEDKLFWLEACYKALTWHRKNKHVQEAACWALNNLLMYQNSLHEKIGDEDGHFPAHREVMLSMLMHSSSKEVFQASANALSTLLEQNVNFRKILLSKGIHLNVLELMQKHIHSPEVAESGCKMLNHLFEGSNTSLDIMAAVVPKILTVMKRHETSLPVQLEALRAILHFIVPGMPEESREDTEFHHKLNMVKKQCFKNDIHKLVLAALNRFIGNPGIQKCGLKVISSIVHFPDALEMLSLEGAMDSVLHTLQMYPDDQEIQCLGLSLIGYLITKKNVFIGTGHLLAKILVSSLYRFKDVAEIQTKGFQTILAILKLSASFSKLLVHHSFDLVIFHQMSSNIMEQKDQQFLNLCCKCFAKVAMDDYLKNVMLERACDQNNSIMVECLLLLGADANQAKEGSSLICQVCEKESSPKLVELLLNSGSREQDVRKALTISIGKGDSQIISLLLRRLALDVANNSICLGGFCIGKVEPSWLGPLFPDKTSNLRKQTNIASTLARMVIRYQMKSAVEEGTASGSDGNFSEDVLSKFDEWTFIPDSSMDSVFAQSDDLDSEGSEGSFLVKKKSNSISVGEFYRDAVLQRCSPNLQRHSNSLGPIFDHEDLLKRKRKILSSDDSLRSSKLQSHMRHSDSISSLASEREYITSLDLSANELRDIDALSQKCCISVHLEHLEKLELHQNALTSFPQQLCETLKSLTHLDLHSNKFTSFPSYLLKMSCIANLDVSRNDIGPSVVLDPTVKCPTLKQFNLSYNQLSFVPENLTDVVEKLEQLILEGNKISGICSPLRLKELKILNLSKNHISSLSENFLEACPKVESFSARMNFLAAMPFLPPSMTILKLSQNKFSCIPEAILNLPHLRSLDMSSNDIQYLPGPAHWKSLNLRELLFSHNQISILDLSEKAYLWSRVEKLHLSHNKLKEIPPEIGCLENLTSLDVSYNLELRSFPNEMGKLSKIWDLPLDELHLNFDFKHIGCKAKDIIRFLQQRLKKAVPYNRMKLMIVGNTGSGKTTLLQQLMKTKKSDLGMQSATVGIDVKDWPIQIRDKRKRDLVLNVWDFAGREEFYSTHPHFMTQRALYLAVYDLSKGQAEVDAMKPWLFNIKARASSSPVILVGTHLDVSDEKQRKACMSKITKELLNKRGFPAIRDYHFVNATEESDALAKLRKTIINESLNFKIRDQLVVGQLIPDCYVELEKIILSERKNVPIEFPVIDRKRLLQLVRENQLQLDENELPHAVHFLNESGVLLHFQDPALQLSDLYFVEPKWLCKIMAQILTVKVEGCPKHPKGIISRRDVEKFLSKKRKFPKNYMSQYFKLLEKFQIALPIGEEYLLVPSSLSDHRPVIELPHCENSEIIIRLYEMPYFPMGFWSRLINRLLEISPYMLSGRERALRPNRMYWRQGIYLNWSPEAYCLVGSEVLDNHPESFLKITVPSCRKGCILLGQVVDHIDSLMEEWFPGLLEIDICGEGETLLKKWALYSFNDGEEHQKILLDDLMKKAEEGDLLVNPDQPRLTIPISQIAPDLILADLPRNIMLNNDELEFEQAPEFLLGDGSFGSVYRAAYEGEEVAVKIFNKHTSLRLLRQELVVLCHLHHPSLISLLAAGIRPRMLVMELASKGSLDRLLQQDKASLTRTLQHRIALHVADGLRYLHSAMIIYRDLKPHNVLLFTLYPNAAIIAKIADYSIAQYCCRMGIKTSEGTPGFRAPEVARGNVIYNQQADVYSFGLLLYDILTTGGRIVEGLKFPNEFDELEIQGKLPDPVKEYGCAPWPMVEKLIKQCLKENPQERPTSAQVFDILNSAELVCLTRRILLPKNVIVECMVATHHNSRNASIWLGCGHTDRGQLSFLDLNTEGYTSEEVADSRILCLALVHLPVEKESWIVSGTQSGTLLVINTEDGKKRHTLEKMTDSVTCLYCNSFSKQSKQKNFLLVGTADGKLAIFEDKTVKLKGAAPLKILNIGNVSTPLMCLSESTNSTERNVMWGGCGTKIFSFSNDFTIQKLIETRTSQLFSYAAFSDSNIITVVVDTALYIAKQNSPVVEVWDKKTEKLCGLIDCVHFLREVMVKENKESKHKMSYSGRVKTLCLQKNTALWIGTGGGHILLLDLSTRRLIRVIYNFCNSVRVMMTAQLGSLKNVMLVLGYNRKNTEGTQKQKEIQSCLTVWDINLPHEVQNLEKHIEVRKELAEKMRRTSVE
Series [3] deals with T1, Leucine-rich repeat serine/threonine-protein kinase 2. The experiment in a line: Inhibition of LRRK2 G2019S mutant (unknown origin) by cell based assay.
Series [4] can be described thus: Ratio of fAUC in rat brain to plasma at 0.5 mg/kg, iv. It counts as ADME, organism-based. The conditions noted are these: brain and plasma.
The target in series [5] is T2, Dual specificity protein kinase TTK (Homo sapiens) (UniProt P33981).
T2 sequence (whole entry): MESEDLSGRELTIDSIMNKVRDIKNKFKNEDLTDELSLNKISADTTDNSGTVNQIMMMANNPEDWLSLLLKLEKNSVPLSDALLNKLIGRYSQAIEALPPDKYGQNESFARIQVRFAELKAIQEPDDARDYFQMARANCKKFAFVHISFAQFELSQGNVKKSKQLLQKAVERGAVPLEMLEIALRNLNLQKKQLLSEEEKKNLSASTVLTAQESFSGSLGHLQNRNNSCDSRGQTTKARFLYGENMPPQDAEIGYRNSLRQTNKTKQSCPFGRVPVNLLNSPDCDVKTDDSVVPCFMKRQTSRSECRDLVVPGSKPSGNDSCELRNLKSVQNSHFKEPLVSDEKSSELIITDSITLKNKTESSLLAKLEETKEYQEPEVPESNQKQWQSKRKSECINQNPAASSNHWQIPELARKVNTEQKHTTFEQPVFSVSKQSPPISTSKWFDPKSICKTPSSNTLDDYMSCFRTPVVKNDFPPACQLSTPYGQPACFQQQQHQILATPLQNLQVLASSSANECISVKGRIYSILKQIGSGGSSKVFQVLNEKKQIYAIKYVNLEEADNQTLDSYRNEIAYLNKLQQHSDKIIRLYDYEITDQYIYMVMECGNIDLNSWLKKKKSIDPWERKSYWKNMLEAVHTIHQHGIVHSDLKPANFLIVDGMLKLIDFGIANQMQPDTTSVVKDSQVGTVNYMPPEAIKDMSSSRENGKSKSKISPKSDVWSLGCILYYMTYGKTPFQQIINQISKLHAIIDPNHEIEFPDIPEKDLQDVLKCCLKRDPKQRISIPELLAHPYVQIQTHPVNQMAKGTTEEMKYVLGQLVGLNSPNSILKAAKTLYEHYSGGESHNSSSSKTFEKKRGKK
Put plainly: Inhibition of TTK (unknown origin) at 1 uM relative to control.

Another series concerns the target TAK1/TAB1 (Homo sapiens) (UniProt Q15750+O43318). The experiment in a line: Inhibition of TAK1/TAB1 (unknown origin) at 1 uM relative to control. It counts as protein-complex assay.
Series [6] is described as follows: Oral bioavailability in rat at 1 mg/kg. It is filed as ADME, organism-based. Particulars: in vivo.
Series [7] addresses Serine/threonine-protein kinase 26 (Homo sapiens) (UniProt Q9P289). The experiment in a line: Inhibition of MST4 (unknown origin) at 1 uM relative to control.
The species named for a further series is Homo sapiens. Put plainly: Selectivity ratio of Ki for JAK2 (unknown origin) to Ki for recombinant human GST-tagged LRRK2 G2019S mutant catalytic domain (970 to 2527 residues) expressed in insect cells.
Series [8] is described as follows: Ratio of AUC in rat brain to plasma at 0.5 mg/kg, iv. It is filed as ADME, organism-based. Particulars: brain and plasma, read-out: Ratio AUC.
Series [9] can be described thus: Clearance in rat at 0.5 to 1 mg/kg, iv. It counts as ADME, organism-based. The conditions noted are these: in vivo.
For series [10], the target named is Maternal embryonic leucine zipper kinase (Homo sapiens) (UniProt Q14680). The experiment in a line: Inhibition of MELK (unknown origin) at 1 uM relative to control.
Maternal embryonic leucine zipper kinase (Homo sapiens), sequence (Q14680 whole entry, looked up): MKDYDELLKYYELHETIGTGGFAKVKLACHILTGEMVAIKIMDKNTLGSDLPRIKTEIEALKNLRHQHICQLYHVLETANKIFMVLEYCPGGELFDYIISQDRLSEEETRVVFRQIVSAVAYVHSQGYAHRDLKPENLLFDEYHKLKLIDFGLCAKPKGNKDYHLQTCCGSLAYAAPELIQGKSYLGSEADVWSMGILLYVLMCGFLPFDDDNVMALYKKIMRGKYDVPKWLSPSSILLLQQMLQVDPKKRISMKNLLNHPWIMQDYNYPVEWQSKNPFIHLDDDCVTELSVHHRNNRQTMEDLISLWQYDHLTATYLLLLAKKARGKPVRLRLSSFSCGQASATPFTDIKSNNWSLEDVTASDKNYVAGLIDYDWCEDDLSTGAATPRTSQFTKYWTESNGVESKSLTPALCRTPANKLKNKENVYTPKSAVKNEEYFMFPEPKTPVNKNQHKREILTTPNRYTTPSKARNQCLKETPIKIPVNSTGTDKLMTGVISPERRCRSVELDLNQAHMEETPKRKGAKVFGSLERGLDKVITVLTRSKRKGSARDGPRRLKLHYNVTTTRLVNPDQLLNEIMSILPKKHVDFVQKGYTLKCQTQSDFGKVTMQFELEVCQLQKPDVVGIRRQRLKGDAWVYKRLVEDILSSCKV

Serine/threonine-protein kinase 26 (Homo sapiens), sequence (Q9P289 2-416 limits assumed): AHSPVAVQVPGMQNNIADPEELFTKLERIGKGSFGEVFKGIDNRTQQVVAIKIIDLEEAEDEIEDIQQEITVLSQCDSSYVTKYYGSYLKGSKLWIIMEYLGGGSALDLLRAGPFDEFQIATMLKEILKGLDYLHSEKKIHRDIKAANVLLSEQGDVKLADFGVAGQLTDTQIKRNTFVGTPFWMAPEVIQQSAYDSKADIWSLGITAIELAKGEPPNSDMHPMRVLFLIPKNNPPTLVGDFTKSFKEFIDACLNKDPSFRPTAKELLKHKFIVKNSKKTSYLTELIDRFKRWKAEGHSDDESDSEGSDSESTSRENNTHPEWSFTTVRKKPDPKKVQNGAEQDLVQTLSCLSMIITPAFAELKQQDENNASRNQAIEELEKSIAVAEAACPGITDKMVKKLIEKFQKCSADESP

Consider `CC(C)c1nc(-c2n[nH]c3ccnc(NC4CCOCC4)c23)n[nH]1`, for which the efflux ratio (commonly a quotient of directional permeabilities that is used to spot active efflux) at 5 µM in the series on P-gp (human MDR1) was determined as 21. Moreover, the clearance – broadly, the volume of plasma or blood freed of the substance per unit of time – in series [1] came to 35 mL/min/kg. For the same compound, the Ki (commonly a dissociation constant, usually derived from enzyme kinetics or from competition with a known ligand) in series [2] came to 7.8 nM. In addition, the IC50 (as a rule, the concentration that inhibits the measured activity by half) in series [3] came out at 35 nM.

`CCc1cc(-c2n[nH]c3ccnc(NC4CCOCC4)c23)nn1C`: the efflux ratio at 5 µM in the series with P-gp (human MDR1) is 10. Further, the Ki in series [2] came out at 0.5 nM. In addition, half-maximal inhibition in [3] (IC50) was put at 4.5 nM.

As for `c1ccc(-c2n[nH]c3ccnc(NC4CCOCC4)c23)nc1`, in the series with P-gp (human MDR1), the efflux ratio at 5 µM was determined as 3.6. Further, the clearance in series [1] was 22 mL/min/kg. Further, the Ki in series [2] is 3.1 nM. Besides, in series [3], the IC50 was 41 nM.

With `FC(F)(F)c1cc(-c2n[nH]c3ccnc(NC4CCOCC4)c23)ncn1`, the Kp uu in [4] was 0.22. For the same compound, the inhibition (as a rule, the share of the control response that was lost under treatment) in series [5] amounted to 52%; against TAK1/TAB1 (Homo sapiens), 51%; in series [7], 59%. Moreover, the efflux ratio at 5 µM with P-gp (human MDR1) is 1.4. Further, the bioavailability (commonly dose-corrected exposure relative to a reference, in per cent) in [6] is 62%. In addition, the clearance in series [1] was 18 mL/min/kg. In addition, the Ratio Ki in the series filed under Homo sapiens was 1000. Moreover, the Kp in [8] is 1. The Ki in [2] came out at 4.1 nM. The compound further yielded an IC50 in series [3] of 24 nM.

With `Cc1n[nH]c2ccnc(OC3CCOCC3)c12`, in [9], the clearance stood at 34 mL/min/kg. In the series on P-gp (human MDR1), the efflux ratio at 5 µM came out at 0.9. In addition, in the series listed under Homo sapiens, the Ratio Ki worked out at 20. Moreover, in series [2], the Ki amounted to 44 nM. Half-maximal inhibition in series [3] (IC50) required 301 nM.

For `CCc1cc(-c2n[nH]c3ccnc(NC4CCOCC4)c23)n(C)n1`, in the series on P-gp (human MDR1), the efflux ratio at 5 µM is 11. For the same compound, the inhibitory constant (Ki) in series [2] was 3900 nM.

Regarding `CC(C)Nc1nccc2[nH]nc(-c3nnc(C4CC4)n3C)c12`, in [2], the Ki is 151 nM.

As for `c1cc(-c2n[nH]c3ccnc(OC4CCOCC4)c23)[nH]n1`, the Ki in series [2] was determined as 44 nM.

On to `CC(C)c1n[nH]c(-c2n[nH]c3ccnc(OC4CCOCC4)c23)n1`, for which the Ki in [2] came to 4600 nM.

Turning to `CCc1cc(-c2n[nH]c3ccnc(NC(C)C)c23)nn1C`, the efflux ratio at 5 µM in the series with P-gp (human MDR1) was 4. Besides, the Ki in series [2] was found to be 3.5 nM.

With `CC(C)(O)Cn1cc(-c2n[nH]c3ccnc(OC4CCOCC4)c23)cn1`, in the series on P-gp (human MDR1), the efflux ratio at 5 µM came to 80. This compound also gave a clearance in series [1] of 30 mL/min/kg. Moreover, the Ki in [2] amounted to 21 nM. The compound further gave an IC50 in series [3] of 13 nM.

`c1cc(-c2n[nH]c3ccnc(OC4CCOCC4)c23)cc(N2CCOCC2)n1`: the inhibition was determined as 60% in series [10] and 86% in series [5]. In series [9], the clearance was 69 mL/min/kg. For the same compound, in the series with P-gp (human MDR1), the efflux ratio at 5 µM came out at 3.4. For the same compound, the Ratio Ki in the series filed under Homo sapiens stood at 882. For the same compound, the Ki in series [2] is 4.2 nM. Moreover, in series [3], half-maximal inhibition (IC50) was put at 24 nM.

Take `c1cc(-c2n[nH]c3ccnc(OC4CCOCC4)c23)nc(N2CCOCC2)c1`: in series [2], the Ki turned out to be 147 nM.

Regarding `Cc1n[nH]c2ccnc(NC3CCOCC3)c12`, in [9], the clearance amounted to 25 mL/min/kg. For the same compound, in the series with P-gp (human MDR1), the efflux ratio at 5 µM is 1.1. For the same compound, in series [2], the Ki was found to be 182 nM. In series [3], this compound displayed a concentration for half-maximal inhibition (IC50) of 426 nM.

Compound `c1cc(-c2n[nH]c3ccnc(NC4CCOCC4)c23)cc(N2CCOCC2)n1` came in with a clearance in [9] of 117 mL/min/kg. In addition, the efflux ratio at 5 µM in the series with P-gp (human MDR1) amounted to 1.5. The IC50 in [3] is 135 nM.

In the case of `Cc1[nH]nc2ccnc(NC3CCOCC3)c12`, in the series listed under Homo sapiens, the Ratio Ki worked out at 20.

On to `CC(C)n1cc(-c2n[nH]c3ccnc(NC4CCOCC4)c23)nn1`, for which, in the series with P-gp (human MDR1), the efflux ratio at 5 µM was 23. In series [2], the inhibitory constant (Ki) is 1.2 nM. In series [3], this compound returned an IC50 of 49 nM.

Source of the values: ChEMBL document CHEMBL4330074, “Discovery of potent azaindazole leucine-rich repeat kinase 2 (LRRK2) inhibitors possessing a key intramolecular hydrogen bond - Part 2” (Bioorg Med Chem Lett, 2019).
